In PubChem BioAssay (NCI):
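Protocol summary: plate cells (96-well), add compound at 5 concentrations, incubate 48 h, interpolate endpoints linearly. Abbreviation: GI50, concentration required for 50% inhibition of growth. The concentration for full growth arrest is given as TGI.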

What was measured:
Experiment in all cases: growth of human tumour cells (NCI), 48 h; in the data active = GI50 below about 0.43 µM; inactive = the rest
[1] = system: A498 renal
[2] = system: A549 NSCLC
[3] = system: ACHN renal
[4] = system: BT-549 breast
[5] = system: CAKI-1 renal
[6] = system: CCRF-CEM leukemia
[7] = system: COLO 205 colon
[8] = system: DU-145 prostate
[9] = system: EKVX NSCLC
[10] = system: HCT-15 colon
[11] = system: HL-60(TB) leukemia
[12] = system: HOP-62 NSCLC
[13] = system: HOP-92 NSCLC
[14] = system: HS 578T breast
[15] = system: HT29 colon
[16] = system: IGROV1 ovarian
[17] = system: K-562 leukemia
[18] = system: KM12 colon
[19] = system: LOX IMVI melanoma
[20] = system: M14 melanoma
[21] = system: MALME-3M melanoma
[22] = system: MCF7 breast
[23] = system: MDA-MB-231 breast
[24] = system: MDA-MB-435
[25] = system: MOLT-4 leukemia
[26] = system: NCI-H226 lung
[27] = system: NCI-H23 lung
[28] = system: NCI-H460 lung
[29] = system: NCI-H522 lung
[30] = system: NCI/ADR-RES ovarian
[31] = system: OVCAR-3 ovarian
[32] = system: OVCAR-4 ovarian
[33] = system: OVCAR-5 ovarian
[34] = system: OVCAR-8 ovarian
[35] = system: PC-3 prostate
[36] = system: RPMI-8226 leukemia
[37] = system: RXF 393 renal
[38] = system: SF-268 CNS
[39] = system: SF-295 CNS
[40] = system: SF-539 CNS
[41] = system: SK-MEL-2 melanoma
[42] = system: SK-MEL-28 melanoma
[43] = system: SK-MEL-5 melanoma
[44] = system: SK-OV-3 ovarian
[45] = system: SNB-19 CNS
[46] = system: SNB-75 CNS
[47] = system: SR leukemia
[48] = system: SW-620 colon
[49] = system: T-47D breast
[50] = system: TK-10 renal
[51] = system: U251 CNS
[52] = system: UACC-257 melanoma
[53] = system: UACC-62 melanoma
[54] = system: UO-31 renal
[55] = system: 786-0 renal
[56] = system: HCC-2998 colon
[57] = system: HCT-116 colon
[58] = system: SN12C renal

CN(CCO)Cc1ncccc1O
89.5 µM: TGI [25]
> 100 µM: TGI [1] | TGI [2] | TGI [3] | TGI [4] | TGI [5] | TGI [6] | TGI [7] | TGI [8] | TGI [9] | TGI [10] | TGI [11] | TGI [12] | TGI [13] | TGI [14] | TGI [15] | TGI [16] | TGI [17] | TGI [18] | TGI [19] | TGI [20] | TGI [21] | TGI [22] | TGI [23] | TGI [24] | TGI [26] | TGI [27] | TGI [28] | TGI [29] | TGI [30] | TGI [31] | TGI [32] | TGI [33] | TGI [34] | TGI [35] | TGI [36] | TGI [37] | TGI [38] | TGI [39] | TGI [40] | TGI [41] | TGI [42] | TGI [43] | TGI [44] | TGI [45] | TGI [46] | TGI [47] | TGI [48] | TGI [49] | TGI [50] | TGI [51] | TGI [52] | TGI [53] | TGI [54]

Cc1ccc(C(=O)c2sc3nc4c(cc3c2N)CCCC4)c(C)c1
> 100 µM: TGI [55] | TGI [2] | TGI [3] | TGI [4] | TGI [5] | TGI [6] | TGI [8] | TGI [56] | TGI [57] | TGI [10] | TGI [12] | TGI [14] | TGI [16] | TGI [17] | TGI [18] | TGI [19] | TGI [20] | TGI [21] | TGI [22] | TGI [23] | TGI [25] | TGI [26] | TGI [27] | TGI [28] | TGI [30] | TGI [32] | TGI [33] | TGI [34] | TGI [35] | TGI [38] | TGI [42] | TGI [44] | TGI [58] | TGI [45] | TGI [48] | TGI [50] | TGI [51] | TGI [52] | TGI [53] | TGI [54]
11 µM: TGI [1]
2.31 µM: TGI [37]
0.956 µM: TGI [40]
> 31.9 µM: TGI [31]
> 71.2 µM: TGI [41]
inactive: GI50 [55] 0.617 µM | GI50 [3] 0.872 µM | GI50 [4] 1.2 µM | GI50 [7] 0.899 µM | GI50 [8] 0.838 µM | GI50 [56] 4.72 µM | GI50 [12] 0.465 µM | GI50 [13] 3.36 µM | GI50 [15] 0.443 µM | GI50 [16] 1.23 µM | GI50 [19] 0.502 µM | GI50 [23] 1.08 µM | GI50 [25] 0.563 µM | GI50 [26] 2.67 µM | GI50 [27] 0.776 µM | GI50 [32] 1.97 µM | GI50 [33] 2.49 µM | GI50 [34] 0.807 µM | GI50 [35] 0.433 µM | GI50 [38] 0.787 µM | GI50 [41] 0.429 µM | GI50 [42] 2.15 µM | GI50 [44] 0.515 µM | GI50 [58] 0.841 µM | GI50 [45] 4.68 µM | GI50 [49] 0.45 µM | GI50 [50] 12.8 µM | GI50 [52] 0.539 µM | GI50 [54] 0.766 µM
0.086 µM: TGI [24]
> 35 µM: TGI [15]
> 73 µM: TGI [47]
98.9 µM: TGI [39]
active: GI50 [1] 0.236 µM | GI50 [2] 0.377 µM | GI50 [5] 0.361 µM | GI50 [6] 0.311 µM | GI50 [57] 0.26 µM | GI50 [10] 0.159 µM | GI50 [11] 0.263 µM | GI50 [14] 0.415 µM | GI50 [17] 0.0934 µM | GI50 [18] 0.251 µM | GI50 [20] 0.19 µM | GI50 [21] 0.0754 µM | GI50 [22] 0.162 µM | GI50 [24] 0.0258 µM | GI50 [28] 0.348 µM | GI50 [29] 0.126 µM | GI50 [30] 0.239 µM | GI50 [31] 0.183 µM | GI50 [36] 0.406 µM | GI50 [37] 0.328 µM | GI50 [39] 0.291 µM | GI50 [40] 0.25 µM | GI50 [43] 0.32 µM | GI50 [46] 0.247 µM | GI50 [47] 0.124 µM | GI50 [48] 0.265 µM | GI50 [51] 0.376 µM | GI50 [53] 0.256 µM
6.97 µM: TGI [36]
> 69.8 µM: TGI [49]
87.6 µM: TGI [13]
6.16 µM: TGI [46]
5.07 µM: TGI [7]
> 37.9 µM: TGI [43]
> 38.8 µM: TGI [11]
